Data as given in US11433081B2 (priority 2018, dated 2022).

Tested on: Chronic Pain
Settings: human, in vivo, po

## COc1ccc2c3c1O[C@H]1C(=O)CC[C@@]4(O)[C@@H](C2)N(C)CC[C@]314 [Oxycodone]
  Pain level: 3 /10
